Entries after “also recorded” stand apart in the source; their conditions may differ.
Experiments:
[1] = Dynamic vapour sorption (sorption isotherms, water uptake); format: physicochemical; details: for hygroscopic behavior: uptake of water: 25° C., citrate
Text: Sorption isotherms were generated using an IGAsorp water sorption monitor from Hiden Isochema. […] For BR salt form only: Sorption isotherms were registered on a DVS-1 water sorption monitor from Surface Measurement Systems.

[2] = Oral pharmacokinetics in rat; format: in vivo, Wistar(Han) rats; details: oral dose 20 μmol/kg of citrate salt 1, mean values
Text: The pharmacokinetics of the test compound following single intravenous (IV) or oral (PO) doses were examined in • female BALB/c mice (average weight: 25 g) • male Wistar(Han) rats (average weight: 260 g) • male and female Göttingen Minipigs (average weight: 24 kg) • male beagle dogs (average weight: 15 kg) All non-rodent species were fasted overnight prior to dosing, while mice and rats had food and water available ad libitum. The p.o. dose of the compound was usually administered as suspension in 0.5% Natrosol or as a 0.5% Natrosol/0.015% Tween 80 suspension. For i.v. dosing purposes, the doses were applied as a solution in 0.9% NaCL, or as a solution containing 9.1% HP-beta Cyclodextrin in water.
Blood was collected by venous sampling and soaking of the blood in EDTA coated tubes. Samples were collected for up to 48 h after administration of the test compound. Plasma was then separated by centrifugation (5 min by approximately 9000 g at 4° C.). For determination of the test compound, plasma was transferred into PCR plates. All samples were stored at approximately −20° C. until bioanalytics. The test compound concentrations in plasma were determined by HPLC MS/MS. The lower limit of quantification was between 0.5 nmol/L and 1 nmol/L.

[3] = X-ray powder diffraction: crystallinity and polymorphism; format: physicochemical; details: for indications for polymorphism: several crystallization experiments
Text: X-ray powder diagrams were generated using a STOE-STADI P-diffractometer in transmission mode fitted with a MYTHEN-detector and a Cu-anode as X-ray source with monochromatic CuKα1 radiation (λ=1.54056 Å, 40 kV, 40 mA).

[4] = ThermoGravimetry (loss on drying); format: physicochemical; details: TG
Text: Thermal gravimetry data were collected with a TG instrument from the Q-series of TA Instruments. This method measures weight changes in a material as a function of temperature under a controlled atmosphere.

[5] = Solubility, automated shake flask method with UV quantitation; format: physicochemical; details: for solubility at 2 h / solubility at 4 h / solubility at 6 h: thermodynamic from solid, room temperature
Protocol: Solubility was determined using an automated shake flask method (at room temperature) and quantitation of the dissolved drug substance was determined by UV-spectroscopy within this automated setup.

[6] = male, Wistar(Han), plasma, 20 umol/kg
[7] = listed as Citrate salt, citrate

In the case of `CO[C@H]1COCC[C@H]1NC1CCN(C(=O)c2ncnc(NC[C@H]3CCC[C@@H](c4ccc(C)cc4)O3)c2C)CC1.O=C(O)CC(O)(CC(=O)O)C(=O)O` [citrate salt 1, (4-((3R,4R)-3-methoxytetrahydro-pyran-4-ylamino)piperidin-1-yl)(5-methyl-6-(((2R,6S)-6-(p-tolyl)tetrahydro-2H-pyran-2-yl)methylamino)pyrimidin-4-yl)methanone citrate], the “physical state after sorption experiment / at higher relative humidity” value ([1]; higher relative humidity, other salts starting at 60-70% relative humidity) is reported as “still remains as solid material”, the “hygroscopic behavior: uptake of water” value ([1]; up to 80% r.h. (humidity range 10-80%)) is reported as 2.6% and the “hygroscopic behavior: uptake of water” value ([1]; up to 80% r.h. (humidity range 10-80%), listed as Citrate salt) is reported as 2.6%. For the same compound, the “hygroscopic behavior: uptake of water” value ([1]; up to 80% r.h. (humidity range 10-80%), listed as citrate) was 2.6%, the “hygroscopic behavior: uptake of water” value ([1]; up to 90% r.h.) was 3.4% and the “hygroscopic behavior: uptake of water” value ([1]; up to 90% r.h., listed as Citrate salt) was 3.4%. For the same compound, the AUC(0-inf) [2, 6] was 1.71 µM·h, the Cmax [2, 6] was 454 nM and the Tmax [2, 6] was 1.08 h. The MRTtot [2] was 3.3 h, the crystallinity ([3]; listed as Citrate salt 1, citrate) was “highly crystalline” and the crystallinity [3, 7] was “high”. The indications for polymorphism [3, 7] was “no”, the indications for polymorphism ([3]; listed as citrate, citrate) was “Only one crystalline form; also recorded: only one polymorphic form” and the loss on drying [4] was 1.6%. The solubility at 2 h ([5]; Sörensen buffer, aqueous buffer, Sörensen pH 10, 2 h) was > 1000 µg/mL, the solubility at 4 h ([5]; Sörensen buffer, aqueous buffer, Sörensen pH 10, 4 h) was > 1000 µg/mL and the solubility at 6 h ([5]; Sörensen buffer, aqueous buffer, Sörensen pH 10, 6 h) was > 1000 µg/mL. For the same compound, the “Solubility in aqueous media (in words)” value ([5]; acidic, neutral and basic aqueous media) was “highly soluble”, the solubility at 2 h ([5]; aqueous buffer, 0.1N NaOH, 2 h) was > 1000 µg/mL and the solubility at 4 h ([5]; aqueous buffer, 0.1N NaOH, 4 h) was > 1000 µg/mL. The solubility at 6 h ([5]; aqueous buffer, 0.1N NaOH, 6 h) was > 1000 µg/mL, the solubility at 2 h ([5]; aqueous buffer, KH2PO4-buffer pH 7.4, 2 h) was > 1000 µg/mL and the solubility at 4 h ([5]; aqueous buffer, KH2PO4-buffer pH 7.4, 4 h) was > 1000 µg/mL. For the same compound, the solubility at 6 h ([5]; aqueous buffer, KH2PO4-buffer pH 7.4, 6 h) was > 1000 µg/mL, the solubility at 2 h ([5]; aqueous buffer, McIlvaine buffer pH 2.2, 2 h) was > 1000 µg/mL and the solubility at 4 h ([5]; aqueous buffer, McIlvaine buffer pH 2.2, 4 h) was > 1000 µg/mL. For the same compound, the solubility at 6 h ([5]; aqueous buffer, McIlvaine buffer pH 2.2, 6 h) was > 1000 µg/mL, the solubility at 2 h ([5]; aqueous buffer, McIlvaine buffer pH 3.0, 2 h) was > 1000 µg/mL and the solubility at 4 h ([5]; aqueous buffer, McIlvaine buffer pH 3.0, 4 h) was > 1000 µg/mL. The solubility at 6 h ([5]; aqueous buffer, McIlvaine buffer pH 3.0, 6 h) was > 1000 µg/mL, the solubility at 2 h ([5]; aqueous buffer, McIlvaine buffer pH 4.0, 2 h) was > 1000 µg/mL and the solubility at 4 h ([5]; aqueous buffer, McIlvaine buffer pH 4.0, 4 h) was > 1000 µg/mL. The solubility at 6 h ([5]; aqueous buffer, McIlvaine buffer pH 4.0, 6 h) was > 1000 µg/mL, the solubility at 4 h ([5]; aqueous buffer, McIlvaine buffer pH 4.5, 4 h) was > 1000 µg/mL and the solubility at 6 h ([5]; aqueous buffer, McIlvaine buffer pH 4.5, 6 h) was > 1000 µg/mL. The solubility at 2 h ([5]; aqueous buffer, McIlvaine buffer pH 5.0, 2 h) was > 1000 µg/mL, the solubility at 4 h ([5]; aqueous buffer, McIlvaine buffer pH 5.0, 4 h) was > 1000 µg/mL and the solubility at 6 h ([5]; aqueous buffer, McIlvaine buffer pH 5.0, 6 h) was > 1000 µg/mL. The solubility at 2 h ([5]; aqueous buffer, McIlvaine buffer pH 6.0, 2 h) was > 1000 µg/mL, the solubility at 4 h ([5]; aqueous buffer, McIlvaine buffer pH 6.0, 4 h) was > 1000 µg/mL and the solubility at 6 h ([5]; aqueous buffer, McIlvaine buffer pH 6.0, 6 h) was > 1000 µg/mL. For the same compound, the solubility at 2 h ([5]; aqueous buffer, McIlvaine buffer pH 6.8, 2 h) was > 1000 µg/mL, the solubility at 4 h ([5]; aqueous buffer, McIlvaine buffer pH 6.8, 4 h) was > 1000 µg/mL and the solubility at 6 h ([5]; aqueous buffer, McIlvaine buffer pH 6.8, 6 h) was > 1000 µg/mL. For the same compound, the solubility at 2 h ([5]; aqueous buffer, McIlvaine buffer pH 7.4, 2 h) was > 1000 µg/mL, the solubility at 4 h ([5]; aqueous buffer, McIlvaine buffer pH 7.4, 4 h) was > 1000 µg/mL and the solubility at 6 h ([5]; aqueous buffer, McIlvaine buffer pH 7.4, 6 h) was > 1000 µg/mL. It also gave a solubility at 2 h ([5]; organic solvent or mixture, EtOH, 2 h) of 9200 µg/mL, a solubility at 4 h ([5]; organic solvent or mixture, EtOH, 4 h) of 9800 µg/mL and a solubility at 6 h ([5]; organic solvent or mixture, EtOH, 6 h) of 10000 µg/mL. The solubility at 2 h ([5]; simulated gastric fluid, 0.01N HCl, 2 h) was > 1000 µg/mL, the solubility at 4 h ([5]; simulated gastric fluid, 0.01N HCl, 4 h) was > 1000 µg/mL and the solubility at 6 h ([5]; simulated gastric fluid, 0.01N HCl, 6 h) was > 1000 µg/mL. The solubility at 2 h ([5]; simulated gastric fluid, 0.1N HCl, 2 h) was > 1000 µg/mL, the solubility at 4 h ([5]; simulated gastric fluid, 0.1N HCl, 4 h) was > 1000 µg/mL and the solubility at 6 h ([5]; simulated gastric fluid, 0.1N HCl, 6 h) was > 1000 µg/mL. For the same compound, the solubility at 2 h ([5]; Water, 2 h) was > 1000 µg/mL, the solubility at 4 h ([5]; Water, 4 h) was > 1000 µg/mL and the solubility at 6 h ([5]; Water, 6 h) was > 1000 µg/mL.
